From patent US8076144B2, “Protocol for risk stratification of ischemic events and optimized individualized treatment” (Cora Healthcare, Inc., priority 1999, dated 2011) come the findings set out here.

The test system of this experiment is whole blood clot formation. The experiment is described as follows: Ecarin-activated TEG hemostasis analysis of recalcified sodium-citrated samples taken before and after in vivo anticoagulation therapy. On the set-up: species or system human. As to conditions: 14b. From the text: One exemplary protocol utilizes a sample, e.g., sample 13, that is obtained from a subject prior to administration of the anticoagulation therapy. Another sample is obtained at a first time period following administration of an anticoagulation therapy such as a direct thrombin inhibitor therapy like bivalirudin, heparin or warfarin. Each sample may be obtained into sodium citrate.
The sodium-citrated samples are recalcified, and an additional reagent is provided such as a prothrombin activator such as ecarin. The hemostasis analyzer 10 is used to measure the time to initial clot formation, R. FIG. 13 illustrates data for a sample of subjects showing time to initial clot formation R before in vivo administration of the anticoagulation therapy and after in vivo administration of the anticoagulation therapy. FIGS. 14a and 14b illustrate tracings and, respectively, showing a typical set of hemostasis parameter data before in vivo administration of the anticoagulation therapy and after in vivo administration of the anticoagulation therapy. […] Importantly, there exists correlation between the delay in initial clot formation and the dosing of the anticoagulation therapy. […]

Take bivalirudin: the “delay in onset of clot formation (time to initial clot formation R)” value (samples from subjects before vs after in vivo administration, recalcified citrated blood with ecarin, FIGS. 13, 14a) is listed as “direct relationship to bivalirudin dosing”. In addition, under “tracings before and after in vivo administration, FIGS. 14a”, the “rate of clot formation α, clot strength MA and lysis LY30” value is “within expected norms”.
